The test system of data set [1] is THP1 cells. Type of data set: cell-based, human. The note with it: THP-1 cells, 10 μM, 24 h; untreated cells 68.3%. As to the method: To understand the anticancer activity mechanism of the synthesized oxindole derivatives, we analysed the cell cycle alteration phase distribution of the cells by treating THP1 cells with oxindole derivatives at 10 μM, for 24 h and analyzed by flow cytometry. Treatment of THP-1 cells with compounds 2b, 3d, 3e, 3g, 3h, 3i, 3j and 3k caused an accumulation of 98.5%, 94.3%, 96.7%, 97%, 98%, 83%, 93.5%, 98.1% cells in the G0/G1 phase respectively as compared to 68.3% in untreated cells and 99.5% in Sunitinib treated cells. […] (Fig. x and Table .y).
The THP1 cells were treated with the active compounds at […] and incubated for about 24 h. The cells were fixed in ice cold ethanol solvent at 4° C. for about 30 minutes. The ethanol was removed and cells were treated with 1 mL of DNA staining solution (2 mg of RNase and 0.2 mg of propidium iodide (PI)) for 30 minutes. The DNA content was measured by flow cytometry (BD FACS C anto II). Results were analysed using FCS express 4 plus software.

A further data set relates to MDA-MB-231 cells. Briefly: SRB assay, cell viability. Type of data set: cell-based. The following applies: Homo sapiens, 48 h, average of three experiments. As to the method: (§1) In order to determine the anticancer potency, the synthesized oxindole derivatives were evaluated for anti-cancer activity various different human cancer cell lines, Leukemic Cancer (THP1), human breast cancer (MDA-MB-231 and MCF-7), human cervix carcinoma cells (HeLa), prostate cancer (DU-145) cellS by using standard Trypan blue and SRB assays. The preliminary anticancer activity for all the synthesized compounds was done at 10 μM concentration and cell inhibition was determined. […] The experiment was repeated thrice and the average values were taken.
(§2) The assay was carried out in a 24 well flat-bottomed microtiter tissue culture plate. Cells were seeded in the plates with a density of 4×10^4 cells/well (counted by tryphan blue exclusion dye method). After 24 hours media was replaced with fresh media and then compounds were added to obtain a concentrations of 10 μM. Sunitinib was used as positive control. Plates were incubated for 48 h at 37° C. in a humidified incubator with 5% CO2. After 48 hours without removing the cell culture supernatant, 500 μl of cold 10% (wt/vol) TCA was added to each well, and the plates were incubated at 4° C. for 1 h. The plates were washed for four times with water then rinsed with water several times to remove TCA, serum, proteins and excess water was removed using paper towels and air dried. 100 μl of 0.4% (wt/vol in 1% acetic acid) SRB solution was added to each well. Plates were left at room temperature for 30 min and then the plates were quickly rinsed for four times with 1% (vol/vol) acetic acid to remove unbound dye were and then air dried until no moisture was visible. 100 μl of 10 mM Tris base solution (pH 10.5) was added to each well and shake for 5 min to solubilize the protein-bound dye. Optical density was measured at 564 nm in a micro plate reader.
Background: Sulforhodamine B stains cellular protein and so reports cell mass.

For the next data set, the system named is HeLa cells. In words: SRB assay, cell viability. The data set is classed as cell-based. The following applies: Homo sapiens, 48 h, average of three experiments. The procedure: as §1, §2
Another data set concerns DU-145 cells. In words: SRB assay, cell viability. Type of data set: cell-based. The note with it: Homo sapiens, 48 h, average of three experiments, read-out: DU145 Cell Viability at 10 μM. As to the method: as §1, §2
For a further data set, the system named is MCF-7 cells. Briefly: SRB assay, cell viability. Type of data set: cell-based. The note with it: Homo sapiens, MCF7, 48 h, average of three experiments. The procedure:
as §1, §2

In data set [2] the test system is THP1 cells. Briefly: Trypan blue assay, cell viability. The following applies: Homo sapiens, THP-1, 48 h, average of three experiments. Type of data set: cell-based. The procedure: as §1
The assay was carried out in a 24 well flat-bottomed microtiter tissue culture plate. THP1 cells were seeded in the plates with a density of 4×10^4 cells/well (counted by tryphan blue exclusion dye method). Compounds were added to obtain a concentration of 10 μM. Sunitinib was used as positive control. Plates were incubated for 48 h at 37° C. in a humidified incubator with 5% CO2. At the end of the treatments, cells (THP1) were resuspended in 0.4% trypan blue and percent cell viability was counted using countess cell chamber (Life Technologies).

The subject of data set [3] is VEGF tyrosin kinase (VEGFR). In words: VEGFR activity, phosphotyrosine (PY) cell-based ELISA. The note with it: 10 μM, 60 min pretreatment, VEGF stimulation. The procedure: Briefly, cells at 60-75% confluence were placed in serum-free medium for 18 h to reduce the background of phosphorylation. Cells were then pretreated for 60 min with 2b, 3d, 3e, 3g, 3h, 3i, 3j and 3k compounds at 10 μM concentration followed by an optimized dose of purified growth factor (VEGF). The reaction was stopped, and cells were permeabilized by quickly removing the media from the cells and adding ice-cold Tris-buffered saline (TBS) containing 0.05% triton X-100, protease inhibitor cocktail, and tyrosine phosphatase inhibitor cocktail (both from Sigma Chemical). The TBS solution was then removed, and cells were fixed to the plate by heat and further incubation in 70% ethanol. Cells were further exposed to block (TBS with 1% BSA) and washed, and then a horseradish peroxidase (HRP)-conjugated phosphotyrosine antibody was added. The antibody was removed; cells were washed again and exposed to an enhanced luminol ELISA substrate, and light emission was measured using a plate reader. The known RTK-specific kinase inhibitor (Sunitinib) was used as positive control for kinase inhibition.
A general note: In an ELISA, binding on a coated surface is turned into a signal by an enzyme label.

With `Cc1ccc(S(=O)(=O)n2cc(C(C#Cc3ccccc3)c3cc4c(cc3O)NC(=O)/C4=C\c3[nH]c(C)cc3C)c3ccccc32)cc1` (centres unmarked) [Compound 3g, (Z)-3-((3,5-dimethyl-1H-pyrrol-2-yl)methylene)-6-hydroxy-5-(3-phenyl-1-(1-tosyl-1H-indol-3-yl)prop-2-yn-1-yl)indolin-2-one], the melting point (commonly the temperature of the solid-liquid transition) was in the range of 185 to 186 °C. Further, the “accumulation of cells in the G0/G1 phase” value with THP1 cells [1] is 97%. In the data set on MDA-MB-231 cells, the viability (commonly a read-out of living cells in per cent, often relative to untreated cells) at 10 µM was 63.8%. Further, the viability at 10 µM with HeLa cells was determined as 88.3%. The viability at 10 µM in the data set with DU-145 cells is 94.3%. Further, the viability at 10 µM in the data set on MCF-7 cells was found to be 91.5%. In the data set with THP1 cells [2], the viability at 10 µM came out at 104%. In addition, in data set [3], the “inhibitory activity of VEGF tyrosin kinase activity” value was “inhibitory activity”.
Consider `CN(C)c1ccc(/C=C2\C(=O)Nc3cc(O)c(C(C#Cc4ccccc4)c4ccccc4)cc32)c2ccccc12` (centres unmarked) [Compound 3e, (Z)-3-((4-(dimethylamino)naphthalen-1-yl)methylene)-5-(1,3-diphenylprop-2-yn-1-yl)-6-hydroxyindolin-2-one], for which the melting point was 188 to 192 °C. For the same compound, the “accumulation of cells in the G0/G1 phase” value in the data set with THP1 cells [1] worked out at 96.7%. Moreover, the viability at 10 µM with MDA-MB-231 cells stood at 85.9%. Further, in the data set with HeLa cells, the viability at 10 µM is 153%. The viability at 10 µM in the data set with DU-145 cells worked out at 48.2%. In addition, the viability at 10 µM in the data set on MCF-7 cells came out at 78.2%. Besides, the viability at 10 µM in the data set with THP1 cells [2] stood at 125%. Besides, the “inhibitory activity of VEGF tyrosin kinase activity” value in data set [3] was “inhibitory activity”.
`Cc1ccsc1/C=C1\C(=O)Nc2cc(O)c(C(C#Cc3ccccc3)c3ccccc3)cc21` (centres unmarked) [Compound 3d, (Z)-5-(1,3-diphenylprop-2-yn-1-yl)-6-hydroxy-3-((3-methylthiophen-2-yl)methylene)indolin-2-one] showed a melting point of 182 to 185 °C. Moreover, the “accumulation of cells in the G0/G1 phase” value in the data set on THP1 cells [1] is reported as 94.3%. Also, in the data set on MDA-MB-231 cells, the viability at 10 µM was found to be 35.9%. The viability at 10 µM in the data set with HeLa cells is 71.3%. Further, the viability at 10 µM in the data set with DU-145 cells came out at 45.5%. Besides, the viability at 10 µM in the data set on MCF-7 cells came to 30.7%. Besides, in the data set on THP1 cells [2], the viability at 10 µM worked out at 33.3%. Also, the “inhibitory activity of VEGF tyrosin kinase activity” value in data set [3] is “inhibitory activity”.
In turn, `Cc1cc(C)c(/C=C2\C(=O)Nc3cc4oc(Cc5ccccc5)c(-c5ccccc5)c4cc32)[nH]1` [Compound 3h, (Z)-2-benzyl-5-((3,5-dimethyl-1H-pyrrol-2-yl)methylene)-3-phenyl-5H-furo[3,2-f]indol-6(7H)-one] gave a melting point of 186 to 188 °C. Further, the “accumulation of cells in the G0/G1 phase” value in the data set on THP1 cells [1] worked out at 98%. Moreover, the viability at 10 µM in the data set with MDA-MB-231 cells is 41.3%. Further, in the data set on HeLa cells, the viability at 10 µM stood at 40.3%. For the same compound, the viability at 10 µM in the data set on DU-145 cells was 58.6%. Further, the viability at 10 µM with MCF-7 cells was determined as 40.5%. For the same compound, the viability at 10 µM with THP1 cells [2] turned out to be 36.2%. Moreover, the “inhibitory activity of VEGF tyrosin kinase activity” value in data set [3] is on record as “inhibitory activity”.

The values are drawn from patent US10343991B2, “C5, C6 substituted and/or fused oxindoles as anti-cancer agents and process for preparation thereof” (Council of Scientific & Industrial Research, priority 2016, dated 2019).
